Read-outs that look alike come from different tables or passages of the source.
Experiments:
[1] = biological target: T1, PPARδ-RXRα heterodimer (Homo sapiens, UniProt Q03181); assay: PPARδ-RXRα heterodimer ligand activity, luciferase reporter in COS-1 transformant (Test Example 4); type: cell-based; conditions: COS-1 transformant (hPPARδ, hRXRα, reporter), 36-48 hours, concentration for 50% of the maximum fold induction
T1 construct: expressed in transfected cells; host or cells: COS-1
T1 sequence (Q03181 1-441): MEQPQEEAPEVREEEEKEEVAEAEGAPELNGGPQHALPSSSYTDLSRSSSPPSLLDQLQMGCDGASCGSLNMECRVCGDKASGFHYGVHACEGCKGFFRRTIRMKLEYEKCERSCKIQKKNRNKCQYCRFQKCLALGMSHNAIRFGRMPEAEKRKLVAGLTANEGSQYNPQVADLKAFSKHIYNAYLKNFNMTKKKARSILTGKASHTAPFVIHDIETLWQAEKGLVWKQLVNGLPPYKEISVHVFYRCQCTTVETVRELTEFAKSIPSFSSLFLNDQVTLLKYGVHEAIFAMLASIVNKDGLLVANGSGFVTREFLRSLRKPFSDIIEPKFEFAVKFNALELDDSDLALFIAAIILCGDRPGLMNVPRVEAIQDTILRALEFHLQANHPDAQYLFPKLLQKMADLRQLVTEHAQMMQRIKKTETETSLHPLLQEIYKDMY
T1 sequence (P19793 1-462 partner): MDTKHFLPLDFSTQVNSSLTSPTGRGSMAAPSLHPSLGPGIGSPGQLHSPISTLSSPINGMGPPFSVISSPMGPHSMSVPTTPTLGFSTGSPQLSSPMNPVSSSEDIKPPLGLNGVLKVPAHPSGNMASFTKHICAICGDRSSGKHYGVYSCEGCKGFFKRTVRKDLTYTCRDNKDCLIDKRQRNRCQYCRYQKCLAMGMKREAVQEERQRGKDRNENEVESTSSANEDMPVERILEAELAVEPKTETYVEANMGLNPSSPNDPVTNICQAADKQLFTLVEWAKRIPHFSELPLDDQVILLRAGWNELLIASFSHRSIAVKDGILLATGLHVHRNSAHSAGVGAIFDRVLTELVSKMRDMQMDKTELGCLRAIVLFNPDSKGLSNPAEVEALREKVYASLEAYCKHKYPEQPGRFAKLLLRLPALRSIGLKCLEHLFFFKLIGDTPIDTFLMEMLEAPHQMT
Summary of the method: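 COS-1 cells transiently co-transfected with human PPARδ, human RXRα, PPRE-luciferase reporter and pRL-tk, then exposed to compound 36-48 h at 37 °C in DMEM with 0.1% fatty acid-free BSA. Luciferase read as fold induction over untreated; EC50 at 50% of maximal fold induction.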

[2] = system: KKAY mice; assay: Hypoglycemic and hypolipidemic actions in mice (Test Example 1); type: in vivo; conditions: Mus musculus, po, 96 h, 0.005% in powdery diet, four days, non-treated group taken as 100%
Summary of the method: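 KKAY mice (9 to 12 weeks old, 5 per group) were fed diet containing 0.005% test compound ad libitum for four days. Plasma glucose and triglycerides from orbital venous blood were measured enzymatically, reported as % decrease relative to untreated group (100%).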

[3] = rate of decrease in blood glucose level, read-out: Hypoglycemic action (%)
[4] = rate of decrease in blood triglyceride level, read-out: Hypolipidemic action (%)

SMILES	EC50 [1]	inhibition in vivo at 0.005 % in diet [2, 3]	inhibition in vivo at 0.005 % in diet [2, 4]
COc1cccc(CC(=O)O)c1OCCCc1cn(-c2ccc(C(F)(F)F)nn2)nc1C(C)C [Example 274, [2-(3-{3-isopropyl-1-[6-(trifluoromethyl)pyridazin-3-yl]-1H-pyrazol-4-yl}propoxy)-3-methoxyphenyl]acetic acid]	320 nM	50%	60%
COc1cccc(CC(=O)O)c1OCCCc1cn(-c2ccc(Cl)cn2)nc1C(C)C [Example 311, (2-{3-[1-(5-chloro-2-pyridinyl)-3-isopropyl-1H-pyrazol-4-yl]propoxy}-3-methoxyphenyl)acetic acid]	280 nM	52%	29%
CCC(CC)c1nn(-c2ccc(C(F)(F)F)nn2)cc1CCCOc1c(C)cccc1CC(=O)O [Example 340, [2-(3-{3-(1-ethylpropyl)-1-[6-(trifluoromethyl)pyridazin-3-yl]-1H-pyrazol-4-yl}propoxy)-3-methylphenyl]acetic acid]	45 nM	49%	55%
CCC(CC)c1nn(-c2ccc(Br)cn2)cc1CCCOc1c(CC(=O)O)cccc1OC [Example 351, (2-{3-[1-(5-bromo-2-pyridinyl)-3-(1-ethylpropyl)-1H-pyrazol-4-yl]propoxy}-3-methoxyphenyl)acetic acid]	72 nM	51%	49%
